Measurements taken from ChEMBL document CHEMBL2424581, “Optimization of phage heptapeptide library-screening process for developing inhibitors of the isocitrate lyase homologue from Mycobacterium tuberculosis” (Med Chem Res, 2013).

Columns and labels:
Isocitrate lyase = biological target: T1, Isocitrate lyase (Mycobacterium tuberculosis, UniProt P9WKK7); assay: Inhibition of Mycobacterium tuberculosis recombinant isocitrate lyase expressed in Escherichia coli BL21 (DE3) using isocitrate as substrate after 10 mins by spectrometric analysis
T1 sequence (P9WKK7 whole entry): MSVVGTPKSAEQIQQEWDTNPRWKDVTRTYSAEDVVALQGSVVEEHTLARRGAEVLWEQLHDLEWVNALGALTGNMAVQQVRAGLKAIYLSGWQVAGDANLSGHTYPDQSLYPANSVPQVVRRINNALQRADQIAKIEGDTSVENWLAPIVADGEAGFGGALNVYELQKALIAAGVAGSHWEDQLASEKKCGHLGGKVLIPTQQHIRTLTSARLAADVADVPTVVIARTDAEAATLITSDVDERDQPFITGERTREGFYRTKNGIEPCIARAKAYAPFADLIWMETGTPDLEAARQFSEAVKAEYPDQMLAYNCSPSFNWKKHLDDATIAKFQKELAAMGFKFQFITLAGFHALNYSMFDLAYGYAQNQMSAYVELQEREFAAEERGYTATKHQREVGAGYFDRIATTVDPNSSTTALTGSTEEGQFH

[1] = biological target: T2, Isocitrate lyase (Mycobacterium tuberculosis) (UniProt P9WKK7); assay: Inhibition of Mycobacterium tuberculosis recombinant isocitrate lyase expressed in Escherichia coli BL21 (DE3) using isocitrate as substrate at 1 mg/mL by spectrometric analysis relative to control
T2 sequence (whole entry): T1 sequence (P9WKK7 whole entry)

Row | Molecule | IC50 (Isocitrate lyase) [µM] | inhibition [1] [%]
1 | O=C(O)CC[N+](=O)[O-] | 50.7 | –
2 | H-HYSSHMR-OH [listing 1 of 2 here] | – | 72
3 | H-TMHLSPY-OH | 156 | 63
4 | H-HISHLML-OH | 192 | 51
5 | H-VTSLKAT-OH | 228 | 51
6 | H-LTQHLTA-OH | 214 | 56
7 | H-NPPERSP-OH | 142 | 73
8 | H-LYALATM-OH | 204 | 52
9 | H-NSSSLAQ-OH | 190 | 62
10 | H-SARVTSR-OH [listing 1 of 2 here] | 166 | –
11 | H-QKASPGA-OH | 172 | 73
12 | H-LTLGPLL-OH | 208 | 55
13 | H-SARVTSR-OH [listing 2 of 2 here] | – | 65
14 | H-HYSSHMR-OH [listing 2 of 2 here] | 126 | –
15 | H-TELSLPS-OH | 182 | 61
